# Article PMC3783409, “Enzymatic Synthesis of RNAs Capped with Nucleotide Analogues Reveals the Molecular Basis for Substrate Selectivity of RNA Capping Enzyme: Impacts on RNA Metabolism” (PLoS ONE, 2013)
# Where two headings read alike, the source gives them in different places.
# Assays:
# [1] = biological target: T1, PBCV-1 GTase (Paramecium bursaria Chlorella virus 1, UniProt Q84424); test: Inhibition of the first step of the GTase reaction (E-GMP formation); format: biochemical; set-up: His-tag; made in house; conditions: for Effect on radiolabelled EpG signal: unlabelled nucleotide 2 mM, GTase 10 µM
# Procedure: Inhibition of the first step of the GTase reaction was evaluated by carrying out the standard first step GTase reaction in the presence of 0.2 pmol of [α-^32P] GTP and 2 mM of either unlabelled GTP or each unlabelled nucleotide analogue separately. The IC50 of nucleotide analogues was determined by carrying out the standard first step reaction in the presence of 0.2 pmol of [α-^32P] GTP and increasing concentrations of up to 2 mM of each nucleotide analogue. The reactions were stopped by the addition of EDTA to 10 mM and SDS to 1% and analyzed by electrophoresis through a 12.5% polyacrylamide gel containing 0.1% SDS. The radiolabelled proteins were visualized by autoradiography of the gel. Radiolabelled covalent complex formation was quantified by scanning the gel with a PhosphorImager (Amersham Biosciences).
# [2] = biological target: T1, PBCV-1 GTase; test: Formation of the covalent enzyme-nucleotide intermediate (SDS-PAGE, Coomassie blue); format: biochemical; set-up: His-tag; made in house; conditions: nucleotide analogue 2 mM, magnesium ions 5 mM
# Procedure: The standard first step reaction was carried out in the presence of each nucleotide analogue (2 mM) in the presence or absence of potassium pyrophosphate (1 mM). The reactions were resolved on SDS-PAGE followed by Coomassie blue staining.
# [3] = biological target: T1, PBCV-1 GTase; test: In vitro RNA capping efficiency (nuclease P1 / alkaline phosphatase digestion, TLC); conditions: for Relative efficiency of RNA capping, 1st and 2nd steps: nucleotide 2 mM, normalized onto the value obtained with GTP
# [4] = biological target: T1, PBCV-1 GTase; test: Transfer of nucleotide analogues onto internally labelled 50 nt RNA (Urea-PAGE); conditions: 32P-internally labelled RNA
# [5] = biological target: T2, eIF4E protein (Mus musculus, UniProt P63073); test: Binding of free NTP to purified eIF4E (fluorescence saturation isotherm); set-up: species or system murine; conditions: 2 µM protein, pH 8.0
# T2 construct: His-tag; made in house; host or cells: bacteria
# Procedure: The binding of RNAs harboring modified RNA cap structures to the eIF4E protein was evaluated by fluorescence spectroscopy as described previously [23]. Briefly, excitation was performed at a wavelength of 290 nm fluorescence using a Hitachi F-2500 fluorescence spectrophotometer. Background emission was eliminated by subtracting the signal from the buffer containing the RNA substrate. The extent to which the RNA binds to purified eIF4E protein was determined by monitoring the fluorescence emission of a fixed concentration of proteins with and without the appropriate RNA (2 µM).
# (B) Increasing amounts of NTP were added to a 2 µM solution of the purified protein in a binding buffer (50 mM Tris/HCl, pH 8.0, and 50 mM KOAc) and following excitation of tryptophan residues at 290 nm the emission spectrum was scanned from 310 to 440 nm. […] The data was fit to a binding curve.
# [6] = read-out: IC50 for E-GMP formation, 1st step, 0.2 pmol [α-32P] GTP, PBCV-1 GTase 10 µM, analogue up to 2 mM, pH 7.5, 1hr at 30°C
# T1 sequence (Q84424 whole entry): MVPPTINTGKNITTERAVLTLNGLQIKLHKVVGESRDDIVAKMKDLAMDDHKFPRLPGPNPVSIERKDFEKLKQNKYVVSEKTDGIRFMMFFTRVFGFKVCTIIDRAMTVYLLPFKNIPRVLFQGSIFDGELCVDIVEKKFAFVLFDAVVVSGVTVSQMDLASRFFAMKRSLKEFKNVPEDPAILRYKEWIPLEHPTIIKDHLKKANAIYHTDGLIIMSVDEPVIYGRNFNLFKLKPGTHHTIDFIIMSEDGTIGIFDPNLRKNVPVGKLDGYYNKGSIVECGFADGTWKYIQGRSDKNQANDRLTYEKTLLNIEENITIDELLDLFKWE
# T2 sequence (P63073 whole entry): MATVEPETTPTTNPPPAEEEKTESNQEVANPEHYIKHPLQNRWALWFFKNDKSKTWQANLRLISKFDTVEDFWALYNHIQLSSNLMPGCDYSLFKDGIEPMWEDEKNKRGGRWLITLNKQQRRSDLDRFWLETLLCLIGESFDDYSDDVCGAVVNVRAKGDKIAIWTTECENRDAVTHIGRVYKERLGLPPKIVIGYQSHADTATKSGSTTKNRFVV
smiles,measurement,setting,value
"Cn1c(N)nc2c(ncn2[C@@H]2O[C@H](COP(=O)(O)OP(=O)(O)OP(=O)(O)O)[C@@H](O)[C@H]2O)c1=O [A1, N1-Me GTP]",IC50,[1]; [6],80 µM
same,Covalent intermediate: slower migrating species on SDS-PAGE,[2],appearance of a slower migrating species
same,"Relative efficiency of RNA capping, 1st and 2nd steps",[3],1.1
"O=c1[nH]cnc2c1ncn2[C@@H]1O[C@H](COP(=O)(O)OP(=O)(O)OP(=O)(O)O)[C@@H](O)[C@H]1O [A2, ITP]",IC50,[1]; [6],340 µM
same,Covalent intermediate: slower migrating species on SDS-PAGE,[2],appearance of a slower migrating species
same,Formation of capped RNA (slower migrating species),[4],formation of a slower migrating species corresponding to the capped RNA
same,"Relative efficiency of RNA capping, 1st and 2nd steps",[3],1.3
"Nc1nc(N)c2ncn([C@@H]3O[C@H](COP(=O)(O)OP(=O)(O)OP(=O)(O)O)[C@@H](O)[C@H]3O)c2n1 [A4, 2-Amino ATP]",IC50,[1]; [6],> 2000 µM
"Nc1nc(Cl)c2ncn([C@@H]3O[C@H](COP(=O)(O)OP(=O)(O)OP(=O)(O)O)[C@@H](O)[C@H]3O)c2n1 [A5, 2-Amino-6 Cl purine RTP]",IC50,[1]; [6],160 µM
same,"Relative efficiency of RNA capping, 1st and 2nd steps",[3],0.08
same,RNA capping (transfer onto RNA) relative to GTP,[3],8%
"COc1nc(N)nc2c1ncn2[C@@H]1O[C@H](COP(=O)(O)OP(=O)(O)OP(=O)(O)O)[C@@H](O)[C@H]1O [A7, O6-Me GTP]",IC50,[1]; [6],150 µM
same,"Relative efficiency of RNA capping, 1st and 2nd steps",[3],0.48
same,RNA capping (transfer onto RNA) relative to GTP,[3],~ 50%
"CSc1nc(N)nc2c1ncn2[C@@H]1O[C@H](COP(=O)(O)OP(=O)(O)OP(=O)(O)O)[C@@H](O)[C@H]1O [A8, 6-Me thio GTP]",IC50,[1]; [6],430 µM
same,"Relative efficiency of RNA capping, 1st and 2nd steps",[3],0.07
"CSc1ncnc2c1ncn2[C@@H]1O[C@H](COP(=O)(O)OP(=O)(O)OP(=O)(O)O)[C@@H](O)[C@H]1O [A10, 6-Me thio ITP]",IC50,[1]; [6],1200 µM
same,Transferability of covalent intermediate onto RNA,"[3]; 5’-α terminally labelled RNA, TLC",clearly not transferable onto RNA
"O=P(O)(O)OP(=O)(O)OP(=O)(O)OC[C@H]1O[C@@H](n2cnc3c(Cl)ncnc32)[C@H](O)[C@@H]1O [A11, 6-Cl purine RTP]",IC50,[1]; [6],> 2000 µM
"Nc1nc2c(nc(Br)n2[C@@H]2O[C@H](COP(=O)(O)OP(=O)(O)OP(=O)(O)O)[C@@H](O)[C@H]2O)c(=O)[nH]1 [A13, 8-Bromo GTP]",IC50,[1]; [6],1500 µM
same,"Relative efficiency of RNA capping, 1st and 2nd steps",[3],0.40
"Nc1nc2c(nc(I)n2[C@@H]2O[C@H](COP(=O)(O)OP(=O)(O)OP(=O)(O)O)[C@@H](O)[C@H]2O)c(=O)[nH]1 [A14, 8-Iodo GTP]",IC50,[1]; [6],420 µM
same,"Relative efficiency of RNA capping, 1st and 2nd steps",[3],1.0
"Nc1nc2c(ccn2[C@@H]2O[C@H](COP(=O)(O)OP(=O)(O)OP(=O)(O)O)[C@@H](O)[C@H]2O)c(=O)[nH]1 [A16, 7-deaza GTP]",IC50,[1]; [6],> 2000 µM
"Nc1ncnc2c1ncn2[C@@H]1O[C@H](COP(=O)(O)OP(=O)(O)OP(=O)(O)O)[C@@H](O)[C@H]1O [ATP, reference compound]",IC50,"[1]; 0.2 pmol [α-32P] GTP, PBCV-1 GTase 10 µM, analogue up to 2 mM, pH 7.5, 1hr at 30°C, read-out: IC50 for E-GMP formation, 1st step",> 2000 µM
same,Effect on radiolabelled EpG signal,[1],no apparent effect
same,Formation of capped RNA (slower migrating species),[4],no effect
"Nc1nc2c(ncn2[C@@H]2O[C@H](COP(=O)(O)OP(=O)(O)OP(=O)(O)O)[C@@H](O)[C@H]2O)c(=O)[nH]1 [GTP, reference compound]",Kd for purified eIF4E,[5],much higher apparent binding constant
same,IC50,[1],100 µM
same,Effect on radiolabelled EpG signal,[1],maximum loss of the radiolabelled EpG signal
same,Formation of capped RNA (slower migrating species),[4],formation of a slower migrating species corresponding to the capped RNA
same,Fraction of capped RNA over the total transcripts,[3]; cap donor 2 mM,0.35 ±0.05
same,"Relative efficiency of RNA capping, 1st and 2nd steps",[3],1.0
